# Data taken from article PMC6544370 (Nature, 2019).
# Molecular target: Lp-CdnE02 (CD-NTase057) (Legionella pneumophila, UniProt P0DSP3)
# Sequence (P0DSP3 whole entry, looked up): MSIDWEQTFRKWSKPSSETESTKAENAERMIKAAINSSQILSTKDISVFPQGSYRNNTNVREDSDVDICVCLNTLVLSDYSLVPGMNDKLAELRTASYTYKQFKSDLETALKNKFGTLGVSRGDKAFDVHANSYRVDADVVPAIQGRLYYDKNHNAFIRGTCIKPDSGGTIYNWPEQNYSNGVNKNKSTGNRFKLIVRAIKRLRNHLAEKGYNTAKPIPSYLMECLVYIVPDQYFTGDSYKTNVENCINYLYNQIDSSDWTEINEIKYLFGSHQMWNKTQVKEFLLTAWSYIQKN
smiles,measurement,value
O=c1ccn([C@@H]2O[C@H](COP(=O)(O)OP(=O)(O)OP(=O)(O)O)[C@@H](O)[C@H]2O)c(=O)[nH]1 [UTP],"radiolabelled NTP, TLC and mass spectrometry",Lp-CdnE02 synthesized predominantly c-di-UMP
